Reference: US20070112068A1, “Nitrile compound and its use in pest control” (priority 2003, published 2007)

Experiments:
Type in all cases: in vivo
Blattalla germanica = assay: Experimental Example 3: treated filter paper with sucrose bait, German cockroach; conditions: 500 ppm, 0.7 ml on filter paper; two male imagoes; after 6 days
Description: A filter paper having a diameter of 5.5 cm was spread on the bottom of a polyethylene cup having a diameter of 5.5 cm and 0.7 ml of the experimental pesticidal solution was added dropwise onto the filter paper. As a bait 30 mg of sucrose was uniformly placed on the filter paper. Into the polyethylene cup, two male Blattalla germanica imagoes were released and the cup was sealed with a lid. After 6 days, the number of surviving Blattalla germanica was examined and the death rate of the pest was calculated.

Blattella germanica [1] = assay: Experimental Example 14: topical application, Blattella germanica; conditions: 1 μl of 1% (w/v) acetone solution onto sternum of thorax of female imagoes; after 7 days
Description: 1% (w/v) solutions of the present compounds (4), (20), (22), (23), (24), (29), (30), (31), (35), (36), (37), (38), (46), (53), (54), (56), (57), (59), (61), (66), (67), (68), (69), (70), (71), (79), (81), (83), (84), (89), and (90) in acetone were prepared. Onto the sternum of the thorax of female imagoes of Blattella germanica, 1 μl of the acetone solution was added dropwise. The imagoes were transferred to a plastic cup having a diameter of about 9 cm and a height of about 4.5 cm and left together with feed and water at 25° C. After 7 days, the number of surviving Blattella germanica was examined and the death rate of the pest was calculated. 10 imagoes of Blattella germanica were put in a cup and three replicate experiments were performed.

Blattella germanica [2] = assay: Experimental Example 15: treated filter paper in paper box, Blattella germanica; conditions: 0.1 ml of 2.5% (w/v) acetone solution on filter paper in paper box; after 7 days
Description: (§1) 2.5% (w/v) solutions of the present compounds (23), (24) and (31) in acetone were prepared. 0.1 ml of the solution was added dropwise onto a filter paper with 2 cm×2 cm and then air-dried. This filter paper was attached to the center of the inside bottom of a paper box having 10 cm (width)×2 cm (height)×7 cm (depth) with a two-sided tape. One hole of 5 mm in width and 2 cm in height was made through one side of this box. This box was placed in a plastic vat with 25 cm×20 cm×8 cm in height and therein 10 females and 10 males of Blattella germanica were released. The inside wall of the plastic vat used in this experiment was coated with talc for preventing the escape of cockroaches. The plastic vat contained feed and water and left at 25° C. After 7 days, Blattella germanica was observed and the death rate of the pest was calculated. This experiment was repeated two times.

Periplaneta fuliginosa = assay: Experimental Example 16: treated filter paper in paper box, Periplaneta fuliginosa; conditions: 0.1 ml of 5% (w/v) acetone solution on filter paper in paper box; after 7 days
Description: as §1, with “5% (w/v)” for “2.5% (w/v)”, “of 2” for “of 5”, “therein 3” for “therein 10”, “and 3” for “and 10”, “of Periplaneta fuliginosa” for “of Blattella germanica”, “days, Periplaneta fuliginosa” for “days, Blattella germanica”

| Compound | death rate of the pest (Blattalla germanica) | death rate of the pest (Blattella germanica [1]) | death rate of the pest (Blattella germanica [2]) | death rate of the pest (Periplaneta fuliginosa) |
| --- | --- | --- | --- | --- |
| N#CC(C#N)(CCCCC(F)F)CCC(F)(F)F [(60)] | 100% | – | – | – |
| N#CC(C#N)(CC(F)(F)C(F)(F)C(F)(F)F)CC(F)(F)C(F)(F)C(F)(F)C(F)F [(79)] | 100% | 100% | – | – |
| N#CC(C#N)(CCC(F)(F)F)CC(F)(F)C(F)(F)C(F)(F)F [(24)] | 100% | 100% | 100% | 100% |
| N#CC(C#N)(CCC(F)(F)F)C[C@H]1CCC[C@@H](CF)C1 [(88)] | 100% | – | – | – |
| N#CC(C#N)(CCC(F)(F)F)CC(F)(F)C(F)(F)F [(22)] | 100% | 100% | – | – |
| N#CC(C#N)(CCC(F)(F)F)CCC(F)(F)C(F)(F)C(F)(F)C(F)(F)F [(38)] | 100% | 100% | – | – |
| CC(F)(F)CCC(C#N)(C#N)CCC(F)(F)F [(64)] | 100% | – | – | – |
| N#CC(C#N)(CCC(F)(F)F)CCC(F)(Cl)C(F)(F)Br (stereo not shown) [(30)] | 100% | 100% | – | – |
| N#CC(C#N)(CCCC(F)(F)F)CC(F)(F)C(F)(F)C(F)(F)C(F)F [(66)] | 100% | 100% | – | – |
| N#CC(C#N)(CCC(F)(F)F)C[C@H]1CCC[C@@H](C(F)F)C1 [(87)] | 100% | – | – | – |
| N#CC(C#N)(CC(F)(F)C(F)F)CC(F)(F)C(F)(F)C(F)(F)C(F)F [(61)] | 100% | 100% | – | – |
| N#CC(C#N)(CCCCCF)CCC(F)(F)F [(55)] | 100% | – | – | – |
| N#CC(C#N)(CCC(F)=C(F)F)CCC(F)(F)F [(17)] | 100% | – | – | – |
| N#CC(C#N)(CCC(F)(F)F)CC1CCC(F)(F)CC1 [(83)] | 100% | 100% | – | – |
| C=CCC(C#N)(C#N)CC(F)(F)C(F)(F)C(F)(F)C(F)F [(47)] | 100% | – | – | – |
| N#CC(C#N)(CCC(F)(F)F)CC(F)(F)C(F)(F)C(F)(F)C(F)(F)C(F)(F)C(F)F [(32)] | 100% | – | – | – |
| N#CC(C#N)(CCC(F)(F)F)CCC(F)(C(F)(F)F)C(F)(F)F [(36)] | 100% | 100% | – | – |
| CCCCCCC(C#N)(C#N)CCC(F)(F)F [(10)] | 100% | – | – | – |
| N#CC(C#N)(CCC(F)(F)F)CC(F)(F)F [(21)] | 100% | – | – | – |

| Compound | death rate of the pest (Blattalla germanica) | death rate of the pest (Blattella germanica [1]) | death rate of the pest (Blattella germanica [2]) | death rate of the pest (Periplaneta fuliginosa) |
| --- | --- | --- | --- | --- |
| N#CC(C#N)(CCC(F)(F)F)CCC(F)(F)F [(5)] | 100% | – | – | – |
| CCCCC(C#N)(C#N)CC(F)(F)C(F)(F)C(F)(F)C(F)F [(80)] | 100% | – | – | – |
| N#CC(C#N)(CCC(F)(F)F)CCC(F)(F)C(F)(F)Br [(35)] | 100% | 100% | – | – |
| N#CC(C#N)(CCC(F)(F)F)CCC(F)(F)C(F)(F)F [(29)] | 100% | 100% | – | – |
| N#CC(C#N)(CCCF)CC(F)(F)C(F)(F)C(F)(F)C(F)F [(74)] | 100% | – | – | – |
| CC(F)(F)CCCC(C#N)(C#N)CCC(F)(F)F [(90)] | – | 100% | – | – |
| N#CC(C#N)(CCCC(F)(F)F)CCC(F)(F)F [(48)] | 100% | – | – | – |
| N#CC(C#N)(CCC(F)=C(F)F)CC(F)(F)C(F)(F)C(F)(F)C(F)F [(75)] | 100% | – | – | – |
| N#CC(C#N)(CCC(F)(F)F)CC1CC1(Cl)Cl (stereo not shown) [(4)] | 100% | 100% | – | – |
| N#CC(C#N)(CC1CC1)CC(F)(F)C(F)(F)C(F)(F)C(F)F [(72)] | 100% | – | – | – |
| N#CC(C#N)(CCC(F)(F)F)CCC(F)(F)C(F)(F)C(F)(F)F [(37)] | 100% | 100% | – | – |
| N#CC(C#N)(CCC(F)(Cl)C(F)(F)Br)CC(F)(F)C(F)C(F)(F)F (stereo not shown) [(46)] | 100% | 100% | – | – |
| N#CC(C#N)(CCC(F)(F)F)CC(F)(F)C(F)C(F)(F)F (stereo not shown) [(23)] | 100% | 100% | 97.5% | 91.7% |
| CCC(F)(F)CCC(C#N)(C#N)CCC(F)(F)F [(70)] | – | 100% | – | – |
| N#CC(C#N)(CCF)CCC(F)(F)F [(25)] | 100% | – | – | – |
| C#CCC(C#N)(C#N)CCC(F)(F)F [(27)] | 100% | – | – | – |
| N#CC(C#N)(CCC(F)(F)C(F)(F)C(F)(F)F)CC(F)(F)C(F)(F)C(F)(F)C(F)F [(71)] | 100% | 100% | – | – |
| N#CC(C#N)(CC(Cl)C(F)(F)F)CC(F)(F)C(F)(F)C(F)(F)C(F)F (stereo not shown) [(69)] | 100% | 100% | – | – |
| N#CC(C#N)(CCC(F)(C(F)(F)F)C(F)(F)F)CCC(F)(C(F)(F)F)C(F)(F)F [(56)] | 100% | 100% | – | – |

| Compound | death rate of the pest (Blattalla germanica) | death rate of the pest (Blattella germanica [1]) | death rate of the pest (Blattella germanica [2]) | death rate of the pest (Periplaneta fuliginosa) |
| --- | --- | --- | --- | --- |
| N#CC(C#N)(CCC(F)(F)F)CC(Cl)C(F)(F)F (stereo not shown) [(58)] | 100% | – | – | – |
| N#CC(C#N)(CBr)CCC(F)(F)F [(52)] | 100% | – | – | – |
| C=CCCC(C#N)(C#N)CC(F)(F)C(F)(F)C(F)(F)C(F)F [(73)] | 100% | – | – | – |
| CCCCCC(C#N)(C#N)CCC(F)(F)F [(9)] | 100% | – | – | – |
| N#CC(C#N)(CCCC(F)(F)C(F)(F)F)CCC(F)(F)F [(89)] | 100% | 100% | – | – |
| N#CC(C#N)(CCCCCl)CCC(F)(F)F [(3)] | 100% | – | – | – |
| N#CC(C#N)(CCC(F)(F)F)CC(F)(F)C(F)F [(20)] | 100% | 100% | – | – |
| N#CC(C#N)(CC(F)(F)C(F)F)CC(F)(F)C(F)F [(50)] | 100% | – | – | – |
| N#CC(C#N)(CCC(F)(F)F)CCC(F)(Cl)C(F)(F)Cl (stereo not shown) [(54)] | 100% | 100% | – | – |
| CC(F)(F)CCC(C#N)(C#N)CC(F)(F)C(F)(F)C(F)(F)C(F)F [(59)] | 100% | 100% | – | – |
| CC(C)=CCC(C#N)(C#N)CC(F)(F)C(F)(F)C(F)(F)C(F)F [(78)] | 100% | – | – | – |
| N#CC(C#N)(CC(F)(F)C(F)(F)F)CC(F)(F)C(F)(F)F [(93)] | 100% | – | – | – |
| CCCC(C#N)(C#N)CC(F)(F)C(F)(F)C(F)(F)C(F)F [(82)] | 100% | – | – | – |
| N#CC(C#N)(CCC(F)(Cl)C(F)(F)Cl)CC(F)(F)C(F)(F)C(F)(F)C(F)F (stereo not shown) [(67)] | 100% | 100% | – | – |
| N#CC(C#N)(CC(Br)C(F)(F)F)CC(F)(F)C(F)(F)C(F)(F)C(F)F (stereo not shown) [(57)] | – | 100% | – | – |
| N#CC(C#N)(CCC(F)(F)C(F)(F)F)CC(F)(F)C(F)(F)C(F)(F)C(F)F [(68)] | 100% | 100% | – | – |
| N#CC(C#N)(CCC1CCC(F)(F)C1)CCC(F)(F)F (stereo not shown) [(84)] | – | 100% | – | – |
| N#CC(C#N)(CC(F)(F)C(F)C(F)(F)F)CC(F)(F)C(F)(F)C(F)(F)C(F)F (stereo not shown) [(81)] | 100% | 100% | – | – |
